# “Also recorded” adds a separate entry of the source.
# How the values were obtained:
# [1] = test system: HCT116 human colon cancer cells; experiment: Cancer cell proliferation inhibition (MTT assay), HCT116; assay type: cell-based; conditions: 72 h incubation, mean ± SD of at least three independent experiments
# Procedure: The following cell lines were used for the screening stage, obtained from American Type Culture Collection (ATCC, Manassas, VA, USA); HCT116 human colon cancer cells and A549 human lung carcinoma cell lines were cultured in RPMI 1640 medium supplemented with 10% FBS. Cell cultures were maintained in a humidified atmosphere of 5% CO2 at 37 °C. Cells were seeded at 2000 cells per well in 96-well plates in a volume of 200 μL per well. The test compounds were dissolved in DMSO and diluted with culture medium to different concentrations. After seeding for 24 h, the medium was removed, and […] of the test compound solution was added in duplicates and incubation continued for 72 h at 37 °C in a humidified atmosphere containing 5% CO2. Control cells were treated with vehicle alone. During the last 4 h of incubation, the cells were exposed to tetrazolium dye (MTT) solution (5 mg/mL, […] per well). The generated formazan crystals were dissolved in […] of dimethyl sulfoxide (DMSO), and the absorbance was read spectrophotometrically at 570 nm using an enzyme-linked immunosorbent assay plate reader. The data was calculated using Graph Pad Prism version 5.0 (GraphPad Softwrae, La Jolla, CA, USA). The IC50s were fitted using a non-linear regression model with a sigmoidal dose response.
# Human A549 xenograft = experiment: In vivo efficacy study, A549 xenograft model; set-up: species or system BALB/c athymic mice; conditions: for Tumor volume: n = 6, mean (SD on next line); for Relative tumor volume: RTV = Vt/V0, n = 6, mean ± SD
# Description: Pathogen-free, 4–6 week-old, female BALB/c athymic mice (Shanghai SCXK Laboratory Animal Technology Co. Ltd., Shanghai, China) were housed under sterile conditions. Human A549 xenograft was established in the right flanks of athymic mice according to the protocol of the National Cancer Institute. When the tumor reached a volume of 100 mm^3, the mice were randomly assigned into control (n = 6 per group) and treatment groups (n = 6 per group). Control group were given lactate buffer, and treatment groups were iv administered with tested compounds. The size of tumor was measured individually on the indicated days. Tumor volume (V) was calculated as V = (length × width^2)/2. The individual relative tumor volume (RTV) was calculated as follows: RTV = Vt/V0, where Vt represented the last tumor size measurement and V0 represented the pre-dosing tumor size measurement. The animal experimental protocols were approved by the Animal Ethics Committee of School of Pharmacy, Fudan University and the mice were treated in accordance with international animal ethics guidelines.
# Solubility of 1a = assay type: physicochemical
# [2] = Liver microsomes metabolic stability, mouse
# [3] = Liver microsomes metabolic stability, human
# [4] = Liver microsomes metabolic stability, rat
smiles,measurement,setting,value
"CC[C@H](C)[C@@H]([C@@H](CC(=O)N1CCC[C@H]1[C@H](OC)[C@@H](C)C(=O)N1CC(c2ccccc2)C1)OC)N(C)C(=O)[C@@H](NC(=O)C(C(C)C)N(C)C)C(C)C (stereo in doubt) [1a, (S)-2-((R)-2-(Dimethylamino)-3-methylbutanamido)-N-((3R,4S,5S)-3-methoxy-1-((S)-2-((1R,2R)-1-methoxy-2-methyl-3-oxo-3-(3-phenylazetidin-1-yl)propyl)pyrrolidin-1-yl)-5-methyl-1-oxoheptan-4-yl)-N,3-dimethylbutanamide]",IC50,[1],2.1 ± 0.4 nM
same,Tumor volume,"Human A549 xenograft; 1 mg/kg iv once a day, day 1",149.56 mm3
same,Relative tumor volume,"Human A549 xenograft; 1 mg/kg iv once a day, day 4",1.27 ± 0.37
same,Tumor volume,"Human A549 xenograft; 1 mg/kg iv once a day, day 4",185.88 mm3
same,Relative tumor volume,"Human A549 xenograft; 1 mg/kg iv once a day, day 7",1.65 ± 0.57
same,Tumor volume,"Human A549 xenograft; 1 mg/kg iv once a day, day 7",248.97 mm3
same,Relative tumor volume,"Human A549 xenograft; 1 mg/kg iv once a day, day 10",2.29 ± 0.76
same,Tumor volume,"Human A549 xenograft; 1 mg/kg iv once a day, day 10",341.75 mm3
same,Relative tumor volume,"Human A549 xenograft; 1 mg/kg iv once a day, day 13",2.69 ± 0.9
same,Tumor volume,"Human A549 xenograft; 1 mg/kg iv once a day, day 13",395.43 mm3
same,Relative tumor volume,"Human A549 xenograft; 1 mg/kg iv once a day, day 16",3.62 ± 1.05
same,Tumor volume,"Human A549 xenograft; 1 mg/kg iv once a day, day 16",530.82 mm3
same,Relative tumor volume,"Human A549 xenograft; 1 mg/kg iv once a day, day 19",3.86 ± 1.34
same,Tumor volume,"Human A549 xenograft; 1 mg/kg iv once a day, day 19",563.52 mm3
same,Relative tumor volume,"Human A549 xenograft; 1 mg/kg iv once a day, day 22",4.69 ± 1.74
same,Tumor volume,"Human A549 xenograft; 1 mg/kg iv once a day, day 22",662.64 mm3
same,Relative tumor volume,"Human A549 xenograft; 2 mg/kg iv once a day, day 4",1.3 ± 0.22
same,Tumor volume,"Human A549 xenograft; 2 mg/kg iv once a day, day 4",214.97 mm3
same,Relative tumor volume,"Human A549 xenograft; 2 mg/kg iv once a day, day 7",1.8 ± 0.31
same,Tumor volume,"Human A549 xenograft; 2 mg/kg iv once a day, day 7",287.02 mm3
same,Relative tumor volume,"Human A549 xenograft; 2 mg/kg iv once a day, day 10",2.44 ± 0.46
same,Tumor volume,"Human A549 xenograft; 2 mg/kg iv once a day, day 10",381.31 mm3
same,Relative tumor volume,"Human A549 xenograft; 2 mg/kg iv once a day, day 13",3.22 ± 0.6
same,Tumor volume,"Human A549 xenograft; 2 mg/kg iv once a day, day 13",508.66 mm3
same,Relative tumor volume,"Human A549 xenograft; 2 mg/kg iv once a day, day 16",4.34 ± 0.97
same,Tumor volume,"Human A549 xenograft; 2 mg/kg iv once a day, day 16",682.39 mm3
same,Relative tumor volume,"Human A549 xenograft; 2 mg/kg iv once a day, day 19",5.15 ± 1.13
same,Tumor volume,"Human A549 xenograft; 2 mg/kg iv once a day, day 19",813.25 mm3
same,Relative tumor volume,"Human A549 xenograft; 2 mg/kg iv once a day, day 22",5.5 ± 2.15
same,Tumor volume,"Human A549 xenograft; 2 mg/kg iv once a day, day 22",862.75 mm3
same,Tumor volume,"Human A549 xenograft; 5 mg/kg iv once a day, day 1",205.7 mm3
same,Relative tumor volume,"Human A549 xenograft; 5 mg/kg iv once a day, day 4",1.37 ± 0.34
same,Tumor volume,"Human A549 xenograft; 5 mg/kg iv once a day, day 4",266.39 mm3
same,Relative tumor volume,"Human A549 xenograft; 5 mg/kg iv once a day, day 7",1.53 ± 0.41
same,Tumor volume,"Human A549 xenograft; 5 mg/kg iv once a day, day 7",287.02 mm3
same,Relative tumor volume,"Human A549 xenograft; 5 mg/kg iv once a day, day 10",2.05 ± 0.62
same,Tumor volume,"Human A549 xenograft; 5 mg/kg iv once a day, day 10",380.17 mm3
same,Relative tumor volume,"Human A549 xenograft; 5 mg/kg iv once a day, day 13",2.7 ± 0.88
same,Tumor volume,"Human A549 xenograft; 5 mg/kg iv once a day, day 13",487.47 mm3
same,Relative tumor volume,"Human A549 xenograft; 5 mg/kg iv once a day, day 16",2.97 ± 0.91
same,Tumor volume,"Human A549 xenograft; 5 mg/kg iv once a day, day 16",554.26 mm3
same,Relative tumor volume,"Human A549 xenograft; 5 mg/kg iv once a day, day 19",3.51 ± 0.82
same,Tumor volume,"Human A549 xenograft; 5 mg/kg iv once a day, day 19",668.46 mm3
same,Relative tumor volume,"Human A549 xenograft; 5 mg/kg iv once a day, day 22",4.19 ± 1.41
same,Tumor volume,"Human A549 xenograft; 5 mg/kg iv once a day, day 22",789.59 mm3
same,toxicity and weight loss,"Human A549 xenograft; 1, 2 and 5 mg/kg/day iv for 22 days, A549 xenograft mice",no overt toxicity and weight-loss; also recorded: did not show any severe toxicity
same,solubility,"Solubility of 1a; distilled water, pH 7.4, water",346 µg/mL
same,solubility (in words),Solubility of 1a; limited exploration of higher in vivo dosage,poor solubility
same,T1/2,"[2]; Mouse liver microsomes, metabolic stability, 1 μM",less than 2 min
same,Clint,"[2]; Mouse, apparent intrinsic clearance, 1 μM",2981.16 mL/min/kg
same,half-life at 1 μM,"[2]; mouse, microsomes",1.83 min
same,Clint,"[3]; Human, apparent intrinsic clearance, 1 μM",92.93 mL/min/kg
same,half-life at 1 μM,"[3]; human, microsomes",18.7 min
same,Clint,"[4]; Rat, apparent intrinsic clearance, 1 μM",262.12 mL/min/kg
same,half-life at 1 μM,"[4]; rat, microsomes",9.48 min
